In patent US5789434A, “Derivatives of substituted 4-biarylbutyric acid as matrix metalloprotease inhibitors” (priority 1995, dated 1998):

Assays:
Format in all cases: biochemical
MMP-9 = target: T1, MMP-9 (Homo sapiens, UniProt P14780); test: Automated MMP Profiling Assay, MMP-9 fluorogenic; settings: for IC50: 96-well automated, P218
T1 construct: from tissue; host or cells: human polymorphonuclear leukocytes (PMN) from whole blood (New York Blood Center), PMA-stimulated supernatant
Procedure: Briefly, polymorphonuclear leukocytes (PMN) preparations were isolated as described above from 3 or more units of freshly drawn whole blood obtained from the New York Blood Center (New York, N.Y.). Cells were resuspended in phosphate buffered saline (PBS) containing 100 ng/ml phorbol myristate acetate (PMA) in the presence of 50 mM diisopropylfluorophospate (DFP), 1 μg/ml leupeptin and aprotinin, and 1 mg/ml catalase for 1 hr at 37° C. Supernatants were collected by centrifugation (300×g) and the samples were frozen at -70° C. All chromatographic methods were performed at 4° C. Thawed samples were concentrated 5-fold using an Amicon chamber equipped with a YM-10 membrane. The concentrate was pressure dialyzed against 0.02M Tris-HCl, 0.1M NaCl, 1 mM CaCl2, 1 μM ZnCl2, 0.001% Brij-35, 0.02% sodium azide (NaN3), pH 7.5 and applied to DEAE ion exchange chromatography resin which was previously equilibrated with the same buffer at a flow rate of 0.4 ml/min. The column was extensively washed with the same buffer and gelatinase was eluted as 4 ml fractions from the column with 0.02M Tris-HCl, 0.5M NaCl, 1 mM CaCl2, 1 μM ZnCl2, 0.001% Brij-35, 0.02% NaN3, pH 7.5. Gelatinase containing fractions were observed by gelatin zymography (see below), loaded onto a gelatin agarose affinity resin and washed with the same buffer. Gelatinase activity was eluted at a flow rate of 1 ml/min from the column as 1 ml fractions with 0.02M Tris-HCl, 1M NaCl, 1 mM CaCl2, 1 μM ZnCl2, 0.001% Brij-35, 0.02% NaN3, pH 7.5 containing 10% dimethyl sulfoxide (DMSO). The fractions containing gelatinase activity were pooled and dialyzed against 0.005M Tris-HCl, 5 mM NaCl, 0.5 mM CaCl2, 0.1 μM ZnCl2, 0.001% Brij-35, pH 7.4. The protein content associated with material was determined with a micro-BCA assay (Pierce, Rockford, Ill.), lyophilized and reconstituted to a desired working concentration (100 μg/ml).
This assay was run with a protocol analogous to that reported for MMP-3 inhibition using the synthetic peptide P218 and each of the three enzymes and measuring quenched fluorescence. This assay with each invention compound was run with the three enzymes MMP-3, MMP-9 and MMP-2 in parallel as adapted for a 96-well microtitre plate using a Hamilton A® workstation.

MMP-2 = target: T2, MMP-2 (Homo sapiens, UniProt P08253); test: Automated MMP Profiling Assay, MMP-2 fluorogenic; settings: 96-well automated, P218; read-out: MMP-2 Fluorogenic IC50 (profiling)
T2 sequence (P08253 110-660): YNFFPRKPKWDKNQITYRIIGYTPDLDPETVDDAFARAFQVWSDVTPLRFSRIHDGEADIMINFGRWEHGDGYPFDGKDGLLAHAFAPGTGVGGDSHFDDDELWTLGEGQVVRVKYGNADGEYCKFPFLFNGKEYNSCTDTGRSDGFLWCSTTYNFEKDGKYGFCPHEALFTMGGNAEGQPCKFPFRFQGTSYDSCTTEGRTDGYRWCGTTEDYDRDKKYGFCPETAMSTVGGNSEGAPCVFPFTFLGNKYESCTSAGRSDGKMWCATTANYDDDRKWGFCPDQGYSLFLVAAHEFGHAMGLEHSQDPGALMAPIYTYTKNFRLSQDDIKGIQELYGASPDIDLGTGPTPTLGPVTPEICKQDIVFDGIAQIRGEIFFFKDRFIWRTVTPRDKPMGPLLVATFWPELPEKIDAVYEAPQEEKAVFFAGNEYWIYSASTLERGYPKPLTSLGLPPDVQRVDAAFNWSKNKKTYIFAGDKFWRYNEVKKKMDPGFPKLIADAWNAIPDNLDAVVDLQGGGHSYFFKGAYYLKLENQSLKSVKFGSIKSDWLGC

MMP-3 = target: T3, MMP-3 (Homo sapiens, UniProt P08254); test: Automated MMP Profiling Assay, MMP-3 fluorogenic; settings: 96-well automated, P218
T3 construct: Truncated Prostromelysin-257 was expressed in a soluble form in E.coli; made in house; host or cells: E. coli
From the text: This assay with each invention compound was run with the three enzymes MMP-3, MMP-9 and MMP-2 in parallel as adapted for a 96-well microtitre plate using a Hamilton A® workstation.

T3 sequence (P08254 100-274 limits assumed): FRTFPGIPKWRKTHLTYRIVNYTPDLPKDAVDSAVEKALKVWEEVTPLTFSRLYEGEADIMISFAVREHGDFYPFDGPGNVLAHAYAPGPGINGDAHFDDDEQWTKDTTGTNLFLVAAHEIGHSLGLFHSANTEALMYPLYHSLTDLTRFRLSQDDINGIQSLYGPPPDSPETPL
T1 sequence (P14780 107-707 limits assumed): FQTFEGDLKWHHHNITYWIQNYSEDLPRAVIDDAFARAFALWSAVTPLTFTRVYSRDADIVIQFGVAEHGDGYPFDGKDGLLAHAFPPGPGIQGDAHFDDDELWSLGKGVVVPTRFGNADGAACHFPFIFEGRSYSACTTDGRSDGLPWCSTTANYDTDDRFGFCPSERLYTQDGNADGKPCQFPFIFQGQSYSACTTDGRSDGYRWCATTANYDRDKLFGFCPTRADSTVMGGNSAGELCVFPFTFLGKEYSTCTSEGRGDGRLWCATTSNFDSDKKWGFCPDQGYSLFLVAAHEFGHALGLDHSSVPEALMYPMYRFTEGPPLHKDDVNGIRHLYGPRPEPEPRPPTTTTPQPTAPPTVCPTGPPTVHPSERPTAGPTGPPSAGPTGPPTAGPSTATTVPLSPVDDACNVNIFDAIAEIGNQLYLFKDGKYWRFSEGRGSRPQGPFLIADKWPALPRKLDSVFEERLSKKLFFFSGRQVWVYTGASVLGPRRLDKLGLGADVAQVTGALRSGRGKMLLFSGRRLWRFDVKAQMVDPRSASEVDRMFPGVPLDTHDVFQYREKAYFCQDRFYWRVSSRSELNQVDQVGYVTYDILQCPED

Compound: O=C(O)[C@H]1[C@H](CN2C(=O)c3ccccc3C2=O)CC[C@@H]1C(=O)c1ccc(-c2ccc(Cl)cc2)cc1 (relative stereo) [Example 360, trans-5-[4-(4-chlorophenyl)phenylcarbonyl]-trans-2-phthalimidomethylcyclopentanecarboxylic acid]
- IC50 (MMP-9): 0.93 nM
- IC50 (MMP-2): 1.46 nM
- IC50 (MMP-3): 5.46 nM

Compound: Cc1ccc(/C=C/[C@@H]2CC[C@H](C(=O)c3ccc(-c4ccc(Cl)cc4)cc3)[C@H]2C(=O)O)cc1 (relative stereo) [Example 363, Cyclopentanecarboxylic acid, 2-[(4'-chloro[1,1'-biphenyl]-4-yl)carbonyl]-5-[2-(4-methylphenyl)ethenyl]-, [1α,2β,5β(E)]-]
- inhibition at 5 µM (MMP-9; at 5 μM): 37%
- IC50 (MMP-2): < 5000 nM
- IC50 (MMP-3): 5000 nM

Compound: COCOC[C@@H]1CC[C@H](C(=O)c2ccc(-c3ccc(Cl)cc3)cc2)[C@H]1C(=O)O (relative stereo) [Example 364]
- IC50 (MMP-9): 180 nM
- IC50 (MMP-2): 40 nM
- IC50 (MMP-3): 46 nM

Compound: O=C(O)[C@H]1[C@H](COCc2ccccc2)CC[C@@H]1C(=O)c1ccc(-c2ccc(Cl)cc2)cc1 (relative stereo) [Example 365, Cyclopentanecarboxylic acid, 2-[(4'-chloro[1,1'-biphenyl]-4-yl)carbonyl]-5-[(phenylmethoxy)methyl]-, (1α,2β,5β)-]
- IC50 (MMP-9): 58 nM
- IC50 (MMP-2): 13 nM
- IC50 (MMP-3): 27 nM

Compound: O=C(O)[C@H]1[C@H](COc2ccccc2)CC[C@@H]1C(=O)c1ccc(-c2ccc(Cl)cc2)cc1 (relative stereo) [Example 366, Cyclopentanecarboxylic acid, 2-[(4'-chloro[1,1'-biphenyl]-4-yl)carbonyl]-5-(phenoxymethyl)-, (1α,2β,5β)-]
- IC50 (MMP-9): 56 nM
- IC50 (MMP-2): 6.7 nM
- IC50 (MMP-3): 22 nM

Compound: O=C(OC[C@@H]1CC[C@H](C(=O)c2ccc(-c3ccc(Cl)cc3)cc2)[C@H]1C(=O)O)c1ccccc1 (relative stereo) [Example 367]
- IC50 (MMP-9): 38 nM
- IC50 (MMP-2): 37 nM
- IC50 (MMP-3): 44 nM

Compound: COC(=O)c1ccccc1C(=O)OC[C@@H]1CC[C@H](C(=O)c2ccc(-c3ccc(Cl)cc3)cc2)[C@H]1C(=O)O (relative stereo) [Example 368]
- IC50 (MMP-9): 30 nM
- IC50 (MMP-2): 31 nM
- IC50 (MMP-3): 36 nM

Compound: O=C(O)[C@H]1[C@H](CSc2cccs2)CC[C@@H]1C(=O)c1ccc(-c2ccc(Cl)cc2)cc1 (relative stereo) [Example 369, Cyclopentanecarboxylic acid, 2-[(4'-chloro[1,1'-biphenyl]-4-yl)carbonyl]-5-[(2-thienylthio)methyl]-, (1α,2β,5β)-]
- IC50 (MMP-9): 139 nM
- IC50 (MMP-2): 37 nM
- IC50 (MMP-3): 54 nM

Compound: O=C(NC[C@@H]1CC[C@H](C(=O)c2ccc(-c3ccc(Cl)cc3)cc2)[C@H]1C(=O)O)c1ccccc1 (relative stereo) [Example 370, Cyclopentanecarboxylic acid, 2-[(benzoylamino)methyl]-[(4'-chloro[1,1'-biphenyl]-4-yl)carbonyl]-, (1α,2β,5β)-]
- IC50 (MMP-9): 26 nM
- IC50 (MMP-2): 8.7 nM
- IC50 (MMP-3): 24 nM

Compound: COCCOCOC[C@@H]1CC[C@H](C(=O)c2ccc(-c3ccc(Cl)cc3)cc2)[C@H]1C(=O)O (relative stereo) [Example 371, Cyclopentanecarboxylic acid, 2-[(4'-chloro[1,1'-biphenyl]-4-yl)carbonyl]-5-[[(2-methoxyethoxy)methoxy]methyl]-, (1α,2β,5β)-]
- IC50 (MMP-9): 26 nM
- IC50 (MMP-2): 9.1 nM
- IC50 (MMP-3): 10 nM

Compound: O=C(O)[C@H]1[C@H](CSCc2ccccc2)CC[C@@H]1C(=O)c1ccc(-c2ccc(Cl)cc2)cc1 (relative stereo) [Example 372, Cyclopentanecarboxylic acid, 2-[(4'-chloro[1,1'-biphenyl]-4-yl)carbonyl]-5-[[(phenylmethyl)thio]methyl]-, (1α,2β,5β)-]
- IC50 (MMP-9): 65 nM
- IC50 (MMP-2): 22 nM
- IC50 (MMP-3): 39 nM
